From ChEMBL document CHEMBL3885861, “Open TG-GATES”

Species on record: Rattus norvegicus
Test: Open TG-GATES - Regimen: Single
Type: toxicity, organism-based, Sprague-Dawley
Design: regimen Single, gender Male, age 6 weeks
Conditions: in vivo, po, 100 mg/kg, route gavage, dose level Low; for APTT / Bas / Eos / Fbg / Hb / Ht / Lym / MCH / MCHC / MCV / Mono / Neu / PT / Plat / RBC / Ret / WBC: tissue Blood; for KIDNEY_L / KIDNEY_R / KIDNEY_TOTAL: tissue Kidney; for LIVER: tissue Liver; for A/G / ALP / ALT / AST / BUN / CRE / Ca / Cl / DBIL / GLC / IP / K / LDH / Na / PL / RALB / TBIL / TC / TG / TP / gamma-GTP: tissue Plasma

CC[C@@H](CO)NCCN[C@@H](CC)CO [ETHAMBUTOL]
TERMINAL_BW (3 h): 224 g
APTT (3 h): 21.6 s
Bas (3 h): 0%
Eos (3 h): 0.8%
Fbg (3 h): 308 mg/dL
Hb (3 h): 13.7 g/dL
Ht (3 h): 40%
Lym (3 h): 80.4%
MCH (3 h): 21.9 pg
MCHC (3 h): 34.1%
MCV (3 h): 64.2 fL
Mono (3 h): 2.4%
Neu (3 h): 14.8%
PT (3 h): 15.6 s
Plat (3 h): 118 x10_4/uL
RBC (3 h): 623.8 x10_4/ul
Ret (3 h): 8.1%
WBC (3 h): 87.8 x10_2/uL
KIDNEY_L (3 h): 1 g
KIDNEY_R (3 h): 1 g
KIDNEY_TOTAL (3 h): 2 g
LIVER (3 h): 10.9 g
A/G (3 h): 1.2
ALP (3 h): 1530.6 IU/L
ALT (3 h): 41 IU/L
AST (3 h): 73 IU/L
BUN (3 h): 12.6 mg/dL
CRE (3 h): 0.1 mg/dL
Ca (3 h): 10.4 mg/dL
Cl (3 h): 107.4 meq/L
DBIL (3 h): 0 mg/dL
GLC (3 h): 189.8 mg/dL
IP (3 h): 8.6 mg/dL
K (3 h): 4 meq/L
LDH (3 h): 172.8 IU/L
Na (3 h): 142.2 meq/L
PL (3 h): 134.2 mg/dL
RALB (3 h): 3 g/dL
TBIL (3 h): 0.018 mg/dL
TC (3 h): 72.6 mg/dL
TG (3 h): 74.4 mg/dL
TP (3 h): 5.4 g/dL
gamma-GTP (3 h): 1.8 IU/L
TERMINAL_BW (6 h): 222.5 g
APTT (6 h): 21.1 s
Bas (6 h): 0%
Eos (6 h): 0.8%
Fbg (6 h): 318 mg/dL
Hb (6 h): 13.5 g/dL
Ht (6 h): 39.8%
Lym (6 h): 78.8%
MCH (6 h): 21.8 pg
MCHC (6 h): 33.9%
MCV (6 h): 64.2 fL
Mono (6 h): 2.8%
Neu (6 h): 16%
PT (6 h): 15.8 s
Plat (6 h): 119.6 x10_4/uL
RBC (6 h): 620.4 x10_4/ul
Ret (6 h): 7.4%
WBC (6 h): 92.6 x10_2/uL
KIDNEY_L (6 h): 1 g
KIDNEY_R (6 h): 1.1 g
KIDNEY_TOTAL (6 h): 2.1 g
LIVER (6 h): 10.2 g
A/G (6 h): 1.2
ALP (6 h): 1476.2 IU/L
ALT (6 h): 45.6 IU/L
AST (6 h): 77 IU/L
BUN (6 h): 12.6 mg/dL
CRE (6 h): 0.2 mg/dL
Ca (6 h): 10.3 mg/dL
Cl (6 h): 106.6 meq/L
DBIL (6 h): 0 mg/dL
GLC (6 h): 180.4 mg/dL
IP (6 h): 9.2 mg/dL
K (6 h): 4.3 meq/L
LDH (6 h): 191.6 IU/L
Na (6 h): 140 meq/L
PL (6 h): 128.6 mg/dL
RALB (6 h): 2.9 g/dL
TBIL (6 h): 0.02 mg/dL
TC (6 h): 72.8 mg/dL
TG (6 h): 54.6 mg/dL
TP (6 h): 5.3 g/dL
gamma-GTP (6 h): 1.8 IU/L
TERMINAL_BW (9 h): 224.5 g
APTT (9 h): 22.3 s
Bas (9 h): 0%
Eos (9 h): 1%
Fbg (9 h): 293.4 mg/dL
Hb (9 h): 13.3 g/dL
Ht (9 h): 38.9%
Lym (9 h): 80%
MCH (9 h): 21.8 pg
MCHC (9 h): 34.2%
MCV (9 h): 63.6 fL
Mono (9 h): 2.2%
Neu (9 h): 15.6%
PT (9 h): 16.2 s
Plat (9 h): 116.9 x10_4/uL
RBC (9 h): 613 x10_4/ul
Ret (9 h): 8%
WBC (9 h): 92.7 x10_2/uL
KIDNEY_L (9 h): 1 g
KIDNEY_R (9 h): 1 g
KIDNEY_TOTAL (9 h): 2.1 g
LIVER (9 h): 9.4 g
A/G (9 h): 1.1
ALP (9 h): 1292.4 IU/L
ALT (9 h): 36.6 IU/L
AST (9 h): 66.8 IU/L
BUN (9 h): 10 mg/dL
CRE (9 h): 0.2 mg/dL
Ca (9 h): 10.1 mg/dL
Cl (9 h): 106.6 meq/L
DBIL (9 h): 0 mg/dL
GLC (9 h): 186.2 mg/dL
IP (9 h): 9 mg/dL
K (9 h): 4.2 meq/L
LDH (9 h): 143 IU/L
Na (9 h): 140.2 meq/L
PL (9 h): 128.2 mg/dL
RALB (9 h): 2.9 g/dL
TBIL (9 h): 0.02 mg/dL
TC (9 h): 75.4 mg/dL
TG (9 h): 59.2 mg/dL
TP (9 h): 5.4 g/dL
gamma-GTP (9 h): 1.8 IU/L
TERMINAL_BW (24 h): 238.5 g
APTT (24 h): 22.6 s
Bas (24 h): 0%
Eos (24 h): 0.6%
Fbg (24 h): 333.2 mg/dL
Hb (24 h): 13.4 g/dL
Ht (24 h): 38.7%
Lym (24 h): 82.4%
MCH (24 h): 21.7 pg
MCHC (24 h): 34.7%
MCV (24 h): 62.7 fL
Mono (24 h): 2.2%
Neu (24 h): 14%
PT (24 h): 15.9 s
Plat (24 h): 119.4 x10_4/uL
RBC (24 h): 618.4 x10_4/ul
Ret (24 h): 7.6%
WBC (24 h): 93.8 x10_2/uL
KIDNEY_L (24 h): 1 g
KIDNEY_R (24 h): 1.1 g
KIDNEY_TOTAL (24 h): 2.1 g
LIVER (24 h): 11.9 g
A/G (24 h): 1.2
ALP (24 h): 1636.2 IU/L
ALT (24 h): 46.8 IU/L
AST (24 h): 75.6 IU/L
BUN (24 h): 17 mg/dL
CRE (24 h): 0.1 mg/dL
Ca (24 h): 10.7 mg/dL
Cl (24 h): 106.6 meq/L
DBIL (24 h): 0 mg/dL
GLC (24 h): 186 mg/dL
IP (24 h): 8.2 mg/dL
K (24 h): 4.1 meq/L
LDH (24 h): 129.2 IU/L
Na (24 h): 141.8 meq/L
PL (24 h): 157.6 mg/dL
RALB (24 h): 3.1 g/dL
TBIL (24 h): 0.012 mg/dL
TC (24 h): 88.8 mg/dL
TG (24 h): 87.4 mg/dL
TP (24 h): 5.7 g/dL
gamma-GTP (24 h): 2.2 IU/L
